The values that follow come from patent US20080287398A1, “COLD MENTHOL RECEPTOR-1 ANTAGONISTS” (priority 2007, published 2008).

Several values for one entry are separate records, joined by “and”; a condition that tells them apart may be missing. Identical values can stand only once. Like-named read-outs stand apart in the source and are kept apart here.

For experiment [1], the target named is T1, canine TRPM8 (Canis lupus familiaris, UniProt Q1A7N1).
T1 construct: expressed in transfected cells
T1 sequence (Q1A7N1 1-1104): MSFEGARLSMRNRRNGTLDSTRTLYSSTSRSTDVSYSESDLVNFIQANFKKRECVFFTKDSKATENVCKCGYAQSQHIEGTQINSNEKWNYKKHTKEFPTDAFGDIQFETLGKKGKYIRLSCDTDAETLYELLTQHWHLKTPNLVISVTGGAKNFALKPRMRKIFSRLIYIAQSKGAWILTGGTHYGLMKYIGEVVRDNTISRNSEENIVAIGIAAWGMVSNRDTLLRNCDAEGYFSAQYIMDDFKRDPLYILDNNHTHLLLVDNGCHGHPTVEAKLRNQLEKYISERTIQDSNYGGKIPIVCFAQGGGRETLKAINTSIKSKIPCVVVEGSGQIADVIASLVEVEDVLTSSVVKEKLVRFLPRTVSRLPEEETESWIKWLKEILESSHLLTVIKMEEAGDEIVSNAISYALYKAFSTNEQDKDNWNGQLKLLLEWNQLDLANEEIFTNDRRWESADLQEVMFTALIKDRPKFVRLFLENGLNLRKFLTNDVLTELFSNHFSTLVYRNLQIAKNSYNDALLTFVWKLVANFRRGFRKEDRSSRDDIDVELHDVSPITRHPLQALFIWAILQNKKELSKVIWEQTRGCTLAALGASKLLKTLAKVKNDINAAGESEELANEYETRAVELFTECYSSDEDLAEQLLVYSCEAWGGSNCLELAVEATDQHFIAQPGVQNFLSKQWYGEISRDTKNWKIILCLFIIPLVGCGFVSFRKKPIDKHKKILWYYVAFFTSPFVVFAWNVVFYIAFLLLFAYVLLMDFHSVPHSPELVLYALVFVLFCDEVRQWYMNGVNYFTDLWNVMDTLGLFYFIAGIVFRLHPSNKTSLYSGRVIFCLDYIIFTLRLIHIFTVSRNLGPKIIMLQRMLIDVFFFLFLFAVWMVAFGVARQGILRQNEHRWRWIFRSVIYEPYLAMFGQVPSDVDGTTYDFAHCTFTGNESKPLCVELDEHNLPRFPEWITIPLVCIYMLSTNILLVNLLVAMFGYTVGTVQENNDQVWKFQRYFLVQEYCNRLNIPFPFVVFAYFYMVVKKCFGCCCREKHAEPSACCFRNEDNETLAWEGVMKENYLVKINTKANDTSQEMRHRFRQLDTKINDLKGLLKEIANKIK
The experiment can be described thus: In vitro canine TRPM8 functional assay (Ca2+-sensitive dye, FLIPR/FDSS, icilin activation). In kind it is cell-based. As to conditions: HEK293 cells expressing canine TRPM8, icilin activation; for inhibition at 1 µM: HEK293, 1 μM compound, read-out: % I (1 μM); for IC50: eight-point dose-response; for % I (0.5 μM): 0.5 μM compound. The method in brief:
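HEK293 cells stably expressing canine TRPM8, loaded with Calcium 3 dye, preincubated with compound for 5 min before icilin at a concentration giving ~80% maximal response. Ca2+ fluorescence by FLIPR or FDSS; basal-subtracted, normalized to % maximal response, quadruplicate wells, sigmoidal fit for EC50/IC50.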

In another experiment the test system is Male Sprague Dawley rats. The experiment is described as follows: Inhibition of icilin-induced wet-dog shakes in rats. Conditions: rat; 30 mg/kg i.p.; 15′ pre icilin; wet-dog shakes vs vehicle. It is filed as in vivo.
For the next experiment, the system named is Sprague-Dawley rats. The experiment is described as follows: CFA-induced paw radiant heat hypersensitivity. It is filed as in vivo, rat. Conditions: for inhibition in vivo at 30 mg/kg: read-out: % Reversal. The procedure:
Intraplantar injection of Complete Freund's Adjuvant (CFA) in rodents results in a long-lasting inflammatory reaction, characterized by a pronounced hypersensitivity to both thermal and mechanical stimuli. This hypersensitivity peaks between 24-72 hours following injection and can last for several weeks. […] This paradigm also may be conducted with a multiple dosing or a prophylactic dosing regime designed to alter the course of hyperalgesia development. This test predicts the analgesic, anti-allodynic and antihyperalgesic effect of numerous effective clinical agents, including NSAIDS such as acetaminophen, aspirin and ibuprofen, and opioids such as morphine.
Each rat was placed in a test chamber on a warm glass surface and allowed to acclimate for approximately 10 minutes. A radiant thermal stimulus (beam of light) was then focused through the glass onto the plantar surface of each hind paw in turn. The thermal stimulus was automatically shut off by a photoelectric relay when the paw was moved or when the cut-off time was reached (20 seconds for radiant heat at ˜5 Amps). An initial (baseline) response latency to the thermal stimulus was recorded for each animal prior to the injection of CFA. Twenty-four hours following intraplantar CFA injection, the response latency of the animal to the thermal stimulus was then re-evaluated and compared to the animal's baseline response time. […] Immediately following the post-CFA latency assessment, test compound or vehicle (usually Solutol, hydroxypropyl methylcellulose, hydroxypropyl beta-cyclodextrin or PEG-400) was administered i.p. or p.o. to rats. […] The percent reversal (% R) of hypersenstivitiy was calculated according to the following formula:
% Reversal=(Treatment Response-CFA Response)/(Baseline Response-CFA Response)×100.

In experiment [2] the target is T1, canine TRPM8. The experiment can be described thus: TRPM8 patch clamp assay (whole-cell, HEK293 cells). In kind it is cell-based. As for the experimental part:
For patch clamp experiments, HEK293 cells stably transfected with canine TRPM8 were cultured in DMEM supplemented with 10% fetal bovine serum, 100 units/ml penicillin, 100 μg/ml streptomycin and 1 mg/ml G418. Cells were maintained at 37° C. and in 5% CO2.
The extracellular solution contained (in mM): NaCl, 132; EGTA, 1; KCl, 5.4; MgCl2, 0.8; HEPES, 10; glucose, 10; pH=7.4. Recordings were performed using the conventional whole-cell patch clamp technique, 1-2 days after plating cells onto glass coverslips at densities appropriate for single cell recording. Currents were amplified by a patch clamp amplifier and filtered at 2 kHz (Axopatch 200B, Molecular Devices, Union City, Calif.). Menthol (100 μM) was applied to the cell at 0.5 ml/min via a gravity-fed perfusion system. Recordings involving menthol activation were performed at 22° C.
In experiments where temperatures were varied, temperature ramps were generated by cooling the perfusate in an in-line cooler (Model SC-20, Warner Instruments, Hamden, Conn.) controlled by a temperature controller (Model CL-100, Warner Instruments). The temperature in the vicinity of the recorded cell was measured with a custom-made miniature thermo-microprobe connected to a monitoring thermometer (Model TH-8, Physitemp, Clifton, N.J.), and sampled using Digidata 1322A and pClamp 9.0 (Molecular Devices), as were the currents concurrently measured in the whole-cell patch clamp mode. The current was continuously sampled (at 100 Hz) at a holding potential of −60 mV.
Compounds were diluted from 10 mM DMSO stocks (stored at −20° C.) into an extracellular solution either containing 100 μM menthol or subjecting to cooling. Increasing concentrations of a compound were applied to a cell in a cumulative manner and concentration-dependent responses were measured after steady-state activation was achieved by either 100 μM menthol or cooling to 10° C. A saturating concentration of a reference antagonist was applied at the end of an experiment (either in the presence of 100 μM menthol or 10° C. temperature) to establish the baseline from which all the other measurements were subtracted.
Percentage inhibition by a compound was calculated as follows: 100×(1−Icomp/I0); where Icomp and I0 are steady-state current amplitudes in either the presence or absence of a concentration of the compound.
(In general: Patch clamp records ionic current or voltage across a cell membrane.)

The next experiment has as its system male SD rats. The experiment is described as follows: Chronic constriction injury (CCI) model of neuropathic pain, acetone-induced hypersensitivity. It is filed as in vivo. As to conditions: rat. As for the experimental part:
Through the mesh floor a series of five applications of acetone (0.05 mL/application) was sprayed onto the bottom of the paw using a multidose syringe device. A positive response took the form of an abrupt withdrawal or lifting of the paw. The percentage of positive responses from the five trials represented the individual's overall response that was then averaged over the entire treatment group. […] An ascending dose response relationship (as in Table 10 below) was generated by addition of successive doses of test compound followed by re-assessment of behavior.

The next experiment relates to rats. The experiment is described as follows: Reversal of icilin-induced behaviors (wet-dog shakes) in rats. In kind it is in vivo. As to conditions: rat; 30 mg/kg p.o.; 1 h post-icilin. The procedure: In this paradigm, icilin-induced shaking was counted for 10 minutes followed by administration of a compound of Formula (I). The diminution of shaking behavior is represented as a percent inhibition relative to icilin-induced shakes in the absence of test compound administration, as described by the following formula: % Inhibition=[1−(WDS count following test compound dose/WDS count prior to test compound dose)]×100.

The mark [3] stands for this setting: HEK293, read-out: % I (0.5 μM), 0.5 μM compound.
[4] abbreviates: HEK293 cells stably transfected with canine TRPM8, 100 μM menthol, 22° C.
The mark [5] stands for this setting: IC50, mode of activation Menthol (100 μM), HEK293 cells stably transfected with canine TRPM8, 100 μM menthol, 22° C.
[6] abbreviates: po, rat, 30 mg/kg p.o., time 1 h.
Setting [7] is: read-out: IC50, mode of activation Cold (10° C.), HEK293 cells stably transfected with canine TRPM8, cooling to 10° C.
[8] abbreviates: read-out: IC50, mode of activation Menthol (100 μM), HEK293 cells stably transfected with canine TRPM8, 100 μM menthol, 22° C.
The mark [9] stands for this setting: rat, 30 mg/kg p.o., time 2 h (printed 2 h or 2).

In general, IC50 refers to the concentration at which inhibition is half-maximal. In general, % Inhibition refers to the percentage by which the read-out fell short of the control. With `Cc1c(C(Cc2ccc(F)c(F)c2)P(=O)(OC(C)C)OC(C)C)sc2ncccc12` (stereo not drawn) [Cpd 34, [2-(3,4-Difluoro-phenyl)-1-(3-methyl-thieno[2,3-b]pyridin-2-yl)-ethyl]-phosphonic acid diisopropyl ester], at canine TRPM8 [1], the inhibition at 1 µM is 100%. Moreover, on canine TRPM8 [1] (read-out: IC50), the IC50 is 0.12 µM and 0.15 µM and 0.2 µM. In the experiment on Male Sprague Dawley rats, the “% Inhibition” value is 28.8%.
With `CCCP(=O)(CCC)C(OCc1ccc(F)c(F)c1)c1sc2ccccc2c1C` (stereo not drawn) [Cpd 42], the inhibition at 1 µM on canine TRPM8 [1] is 100%. In addition, the IC50 at canine TRPM8 [1] (read-out: IC50) is 0.15 µM and 0.14 µM. Further, in the experiment on Male Sprague Dawley rats, the “% Inhibition” value is 70.6%.
For the molecule `Cc1c(C(Cc2ccc(F)c(F)c2)P(=O)(OCC(C)(C)C)OCC(C)(C)C)sc2ccccc12` (stereo not drawn) [Cpd 53, [2-(3,4-Difluoro-phenyl)-1-(3-methyl-benzo[b]thiophen-2-yl)-ethyl]-phosphonic acid bis-(2,2-dimethyl-propyl) ester], the inhibition at 1 µM at canine TRPM8 [1] was determined as 100%. Further, the IC50 at canine TRPM8 [1] (read-out: IC50) was 0.22 µM and 0.26 µM. Moreover, the inhibition in vivo at 30 mg/kg in the experiment with Sprague-Dawley rats (ip, 0.5 h, rat, 30 mg/kg i.p., time 30′) is 77%; with Sprague-Dawley rats (po, rat, 30 mg/kg p.o., time 2 h (printed 2 h or 2)), 44%. In addition, the “% Inhibition” value with Male Sprague Dawley rats was 65.6%.
For `CCOP(=O)(OCC)C(Cc1ccc(OC(F)(F)F)cc1)c1sc2ccccc2c1Br` (stereo not drawn) [Cpd 155, [1-(3-Bromo-benzo[b]thiophen-2-yl)-2-(4-trifluoromethoxy-phenyl)-ethyl]-phosphonic acid diethyl ester], the inhibition at 0.5 µM on canine TRPM8 [1] (setting [3]) came to 104%. Also, the IC50 on canine TRPM8 [1] (IC50 (μM)) was 0.046 µM and 0.12 µM and 0.09 µM; at canine TRPM8 [2] (setting [4]) it was 12.5 nM. Besides, the inhibition in vivo at 30 mg/kg with Sprague-Dawley rats (Rattus norvegicus, po, 1 h) was determined as 138%.
As for `CC(C)OP(=O)(OC(C)C)[C@H](Cc1ccc(F)c(F)c1)c1sc2ccccc2c1Br` [Cpd 235, (R)-[1-(3-Bromo-benzo[b]thiophen-2-yl)-2-(3,4-difluoro-phenyl)-ethyl]-phosphonic acid diisopropyl ester], the IC50 at canine TRPM8 [1] (read-out: IC50) amounted to 0.253 µM; against canine TRPM8 [2] (setting [5]), 59.2 nM. The “% of Allodynic Baseline” value in the experiment on male SD rats (30 mg/kg p.o., preRx 1 hr) was found to be 34.3%. Besides, in the experiment with Sprague-Dawley rats (setting [6]), the inhibition in vivo at 30 mg/kg came out at 45%.
In the case of `CCOP(=O)(OCC)C(Cc1ccc(F)cc1)c1sc2ccccc2c1Br` (stereo not drawn) [Cpd 238, [1-(3-Bromo-benzo[b]thiophen-2-yl)-2-(4-fluoro-phenyl)-ethyl]-phosphonic acid diethyl ester], the inhibition at 0.5 µM on canine TRPM8 [1] (setting [3]) was found to be 104%. In addition, the figures for the IC50 on canine TRPM8 [1] (IC50 (μM)) and on canine TRPM8 [2] (setting [4]) were 0.044 µM and 0.53 nM, respectively. In addition, the inhibition in vivo at 30 mg/kg with Sprague-Dawley rats (Rattus norvegicus, po, 2 h) stood at 56%.
As to `CC(C)OP(=O)(OC(C)C)C(Cc1ccc(F)c(C(F)(F)F)c1)c1sc2ccccc2c1Br` (stereo not drawn) [Cpd 241, [1-(3-Bromo-benzo[b]thiophen-2-yl)-2-(4-fluoro-3-trifluoromethyl-phenyl)-ethyl]-phosphonic acid diisopropyl ester], on canine TRPM8 [1] (HEK293, 0.5 μM compound, read-out: % I (0.5 μM)), the inhibition at 0.5 µM came out at 102%. For the same molecule, the inhibition at 1 µM at canine TRPM8 [1] is 103%. Further, the IC50 on canine TRPM8 [1] (read-out: IC50) is 0.038 µM; against canine TRPM8 [2] (setting [5]) it was 1.6 nM. For the same molecule, the inhibition in vivo at 30 mg/kg in the experiment on Sprague-Dawley rats (setting [6]) was found to be 72%.
Turning to “(S)-[1-(3-Bromo-benzo[b]thiophen-2-yl)-2-(4-fluoro-phenyl)-ethyl]-phosphonic acid diisopropyl ester [Cpd 239]”, in the experiment on rats, the “% Inhibition” value is on record as 48.4%. Also, the “% I (0.5 μM)” value at canine TRPM8 [1] is recorded as 103, 103%. The IC50 at canine TRPM8 [1] (read-out: IC50) was 0.037 µM and 0.027 µM and 0.031 µM; at canine TRPM8 [2] (setting [7]), 5.8 nM; at canine TRPM8 [2] (setting [8]), 3 nM. The “% of Allodynic Baseline” value with male SD rats (30 mg/kg p.o., preRx 1 hr) came out at 29.4%. Besides, the “% Reversal” value in the experiment with Sprague-Dawley rats (setting [9]) is reported as 36%.
Regarding “(S)-[1-(3-Bromo-benzo[b]thiophen-2-yl)-2-(4-trifluoromethoxy-phenyl)-ethyl]-phosphonic acid diisopropyl ester [Cpd 236]”, in the experiment with rats, the “% Inhibition” value was determined as 36.8%. Moreover, the “% I (0.5 μM)” value at canine TRPM8 [1] is 103, 103%. Moreover, the IC50 amounted to 2.9 nM on canine TRPM8 [2] (setting [7]) and 1.4 nM on canine TRPM8 [2] (setting [8]). The “% of Allodynic Baseline” value was found to be 28.6% in the experiment with male SD rats (30 mg/kg p.o., preRx 4 hr) and 68.8% in the experiment on male SD rats (100 mg/kg p.o., preRx 4 hr). The “% Reversal” value with Sprague-Dawley rats (setting [9]) was 25%.
